Assay results as given in publication PMC9995496, “A screen for MeCP2-TBL1 interaction inhibitors using a luminescence-based assay” (Scientific Reports, 2023).
Structures can show the parent of a compound that is named as a salt.

System: PRKACA-PRKAR2A interaction (SmBiT-PRKACA / LgBiT-PRKAR2A), protein kinase A
Parameters: NanoLuc complementation counter-screen in cell extract, PRKACA with PRKAR2A, loss of luminescence, detects NanoLuc interference
Details: counter-screen for NanoLuc interference, 0.5 h, 20 µM, inhibitor, Inh (PKA)

Inh (PKA) | SMILES
0.152% | N[C@@H](CC(=O)N1CCn2c(nnc2C(F)(F)F)C1)Cc1cc(F)c(F)cc1F [UM0141674:01, Sitagliptin phosphate monohydrate]
0.7637% | Cn1c(=O)cc(N2CCC[C@@H](N)C2)n(Cc2ccccc2C#N)c1=O [UM0141676:01, Alogliptin (SYR-322)]
2.404% | COC(=O)N[C@H](C(=O)N[C@@H](Cc1ccccc1)[C@@H](O)CN(Cc1ccc(-c2ccccn2)cc1)NC(=O)[C@@H](NC(=O)OC)C(C)(C)C)C(C)(C)C [UM0141677:01, Atazanavir sulfate (BMS-232632-05)]
1.233% | C[C@H]1c2cccc(O)c2C(=O)C2=C(O)[C@]3(O)C(=O)C(C(N)=O)=C(O)[C@@H](N(C)C)[C@@H]3[C@@H](O)[C@@H]21 [UM0141681:01, Doxycycline hyclate]

Same assay, conditions: counter-screen for NanoLuc interference; 0.5 h, 20 µM; inhibitor

Inh (PKA) | SMILES
-0.4944% | CC(C)C[C@H](NC(=O)CNC(=O)c1cc(Cl)ccc1Cl)B1OC(=O)C(CC(=O)O)(CC(=O)O)O1 [UM0141662:01, MLN9708]
0.9496% | CC(C)C[C@H](NC(=O)CNC(=O)c1cc(Cl)ccc1Cl)B(O)O [UM0141663:01, MLN2238]
2.205% | CC(C)C[C@H](NC(=O)[C@@H](NC(=O)c1cccc(-c2ccccc2)n1)[C@@H](C)O)B(O)O [UM0141664:01, CEP-18770]
2.946% | COc1ccc(C[C@H](NC(=O)[C@H](C)NC(=O)CN2CCOCC2)C(=O)N[C@@H](Cc2ccccc2)C(=O)[C@@]2(C)CO2)cc1 [UM0141665:01, ONX-0914 (PR-957)]
4.42% | C[C@H](NC(=O)Cc1cc(F)cc(F)c1)C(=O)N[C@@H]1C(=O)N(C)c2ccccc2-c2ccccc21 [UM0141666:01, YO-01027 (Dibenzazepine, DBZ)]
13.09% | C[C@H](NC(=O)[C@@H](O)c1cc(F)cc(F)c1)C(=O)N[C@@H]1C(=O)N(C)c2ccccc2-c2ccccc21 [UM0141667:01, LY-411575]
25.28% | NC(=O)[C@@H](CCC(F)(F)F)N(Cc1ccc(-c2ncon2)cc1F)S(=O)(=O)c1ccc(Cl)cc1 [UM0141668:01, BMS-708163 (Avagacestat)]
-1.62% | C[C@H](NC(=O)CCC(F)(F)F)C(=O)N[C@@H]1C(=O)N(CCO)c2ncccc2-c2ccccc21 [UM0141669:01, LY3039478]
3.662% | CC(C)(C)OC(=O)N[C@H]1CCCCC/C=C\[C@@H]2C[C@@]2(C(=O)NS(=O)(=O)C2CC2)NC(=O)[C@@H]2C[C@@H](OC(=O)N3Cc4cccc(F)c4C3)CN2C1=O [UM0141670:01, Danoprevir (RG7227)]
3.048% | CCC[C@H](NC(=O)[C@@H]1[C@H]2CCC[C@H]2CN1C(=O)[C@@H](NC(=O)[C@@H](NC(=O)c1cnccn1)C1CCCCC1)C(C)(C)C)C(=O)C(=O)NC1CC1 [UM0141671:01, Telaprevir (VX-950)]
8.385% | CC(C)(C)C#Cc1cc(N(C(=O)[C@H]2CC[C@H](C)CC2)[C@H]2CC[C@H](O)CC2)c(C(=O)O)s1 [UM0141672:01, VX-222 (VCH-222, Lomibuvir)]
1.695% | CC#CCn1c(N2CCC[C@@H](N)C2)nc2c1c(=O)n(Cc1nc(C)c3ccccc3n1)c(=O)n2C [UM0141673:01, Linagliptin (BI-1356)]
0.7818% | N#C[C@@H]1CCCN1C(=O)CNC12CC3CC(CC(O)(C3)C1)C2 [UM0141675:01, Vildagliptin (LAF-237)]
0.03588% | CNC(=O)[C@@H](NC(=O)[C@H](CC(C)C)[C@H](O)C(=O)NO)C(C)(C)C [UM0141678:01, Marimastat]
-1.568% | CNC(=O)[C@H](Cc1c[nH]c2ccccc12)NC(=O)[C@@H](CC(=O)NO)CC(C)C [UM0141679:01, GM 6001]
15.79% | CCCC(C)NC(=O)c1ccc(Cl)c(Cl)c1 (stereo not shown) [UM0141680:01, NSC 405020]
8.06% | C=CCNC1=C2C[C@@H](C)C[C@H](OC)[C@H](O)[C@@H](C)/C=C(\C)[C@H](OC(N)=O)[C@@H](OC)/C=C\C=C(/C)C(=O)NC(=CC1=O)C2=O [UM0141682:01, 17-AAG (KOS953)]
8.919% | CC(C)c1cc(C(=O)N2Cc3ccc(CN4CCN(C)CC4)cc3C2)c(O)cc1O [UM0141683:01, AT13387]
15.87% | CCNC(=O)c1noc(-c2cc(C(C)C)c(O)cc2O)c1-c1ccc(CN2CCOCC2)cc1 [UM0141684:01, AUY922 (NVP-AUY922)]
2.432% | COc1c(C)cnc(Cn2cnc3c(Cl)nc(N)nc32)c1C [UM0141685:01, BIIB021]
5.017% | COC1=C2C[C@@H](C)C[C@H](OC)[C@H](O)[C@@H](C)/C=C(\C)[C@H](OC(N)=O)[C@@H](OC)/C=C\C=C(/C)C(=O)NC(=CC1=O)C2=O [UM0141686:01, Geldanamycin]
8.876% | CC1(C)CC(=O)c2c(C(F)(F)F)nn(-c3ccc(C(N)=O)c(N[C@H]4CC[C@H](OC(=O)CN)CC4)c3)c2C1 [UM0141688:01, PF-04929113 (SNX-5422)]
12.62% | CC1(C)CC(=O)c2c(C(F)(F)F)nn(-c3ccc(C(N)=O)c(N[C@H]4CC[C@H](O)CC4)c3)c2C1 [UM0141689:01, SNX-2112]
4.266% | Cn1c(N2CCCCS2(=O)=O)nc(C(=O)NCc2ccc(F)cc2)c(O)c1=O [UM0141690:01, BMS-707035]
4.883% | COc1cc2c(cc1Cc1cccc(Cl)c1F)c(=O)c(C(=O)O)cn2[C@H](CO)C(C)C [UM0141691:01, Elvitegravir (GS-9137)]
3.571% | CCN1C[C@H](C)n2c(c(O)c3c(=O)n(Cc4ccc(F)c(Cl)c4)nc(C(=O)NC)c32)C1=O [UM0141692:01, MK-2048]
1.324% | Cc1nnc(C(=O)NC(C)(C)c2nc(C(=O)NCc3ccc(F)cc3)c(O)c(=O)n2C)o1 [UM0141693:01, Raltegravir (MK-0518)]

Inh (PKA) | SMILES
3.965% | C[C@@H]1CCO[C@H]2Cn3cc(C(=O)NCc4ccc(F)cc4F)c(=O)c(O)c3C(=O)N12 [UM0141694:01, S/GSK1349572]
1.949% | O=C(CCCCCCNC(=O)c1cnc(N(c2ccccc2)c2ccccc2)nc1)NO [UM0141695:01, Rocilinostat (ACY-1215)]
5.263% | Nc1ccccc1NC(=O)c1ccc(CNc2nccc(-c3cccnc3)n2)cc1 [UM0141696:01, Mocetinostat (MGCD0103, MG0103)]
2.58% | Cn1cc(CNCC2CCN(c3ncc(C(=O)NO)cn3)CC2)c2ccccc21 [UM0141697:01, JNJ-26481585]
4.873% | COc1ccc(Cn2ccc3ccc(C(=O)NO)cc32)cc1 [UM0141698:01, PCI-34051]
11.72% | C#Cc1cccc(Nc2ncnc3cc(OC)c(OCCCCCCC(=O)NO)cc23)c1 [UM0141699:01, CUDC-101]
1.847% | CCN(CC)Cc1ccc2cc(COC(=O)Nc3ccc(C(=O)NO)cc3)ccc2c1 [UM0141700:01, ITF2357 (Givinostat)]
48.72% | Cn1cc(/C=C/C(=O)c2cccc(F)c2)cc1/C=C/C(=O)NO [UM0141701:01, MC1568]
1.422% | O=C(/C=C/c1cccc(S(=O)(=O)Nc2ccccc2)c1)NO [UM0141702:01, Belinostat (PXD101)]
0.8331% | CN(C)Cc1c(C(=O)NCCOc2ccc(C(=O)NO)cc2)oc2ccccc12 [UM0141704:01, PCI-24781 (CRA-024781)]
3.4% | O=C(/C=C/c1ccc(CN(CCO)CCc2c[nH]c3ccccc23)cc1)NO [UM0141707:01, LAQ824 (NVP-LAQ824,Dacinostat)]
2.219% | CC(C)[C@H](C(=O)Nc1ccc(C(=O)NO)cc1)c1ccccc1 [UM0141708:01, AR-42 (OSU-HDAC42)]
1.639% | CN(C)c1ccc(C(=O)NCCCCCCC(=O)NO)cc1 [UM0141709:01, M344]
1.101% | COc1cc2c(Nc3ccc(NC(=O)c4ccccc4)cc3)ncnc2cc1OCCCN1CCOCC1 [UM0141710:01, ZM 447439]
70.21% | O=C(O)c1ccc(Nc2ncc3c(n2)-c2ccc(Cl)cc2C(c2c(F)cccc2F)=NC3)cc1 [UM0141711:01, MLN8054]
15.42% | Nc1nc(Nc2ccc(S(N)(=O)=O)cc2)nn1C(=O)c1c(F)cccc1F [UM0141712:01, JNJ-7706621]
4.91% | CO[C@@H](C(=O)N1Cc2[nH]nc(NC(=O)c3ccc(N4CCN(C)CC4)cc3)c2C1)c1ccccc1 [UM0141713:01, Danusertib (PHA-739358)]
10.96% | O=C(Nc1c[nH]nc1-c1nc2ccc(CN3CCOCC3)cc2[nH]1)NC1CC1 [UM0141714:01, AT9283]
53.45% | CCS(=O)(=O)Nc1ccc2c(c1)/C(=C(/Nc1ccc(CN3CCCCC3)cc1)c1ccccc1)C(=O)N2 [UM0141715:01, Hesperadin]
63.02% | Cc1csc(-c2nnc(Nc3ccc(Oc4ncccc4-c4ccnc(N)n4)cc3)c3ccccc23)c1 [UM0141716:01, AMG-900]
44.53% | O=C(O)[C@]1(Cc2cccc(Nc3nccs3)n2)CC[C@@H](Oc2cccc(Cl)c2F)CC1 [UM0141717:01, MK-5108 (VX-689)]
29.21% | O=C(Nc1cccc(Cl)c1)Nc1ncc(CCNc2ncnc3ccsc23)s1 [UM0141718:01, SNS-314 Mesylate]
7.851% | CCc1cccc(CC)c1NC(=O)N1Cc2[nH]nc(NC(=O)c3ccc(N4CCN(C)CC4)cc3)c2C1 [UM0141719:01, PHA-680632]
34.71% | O=C(c1ccc(/C=C/c2n[nH]c3ccccc23)cc1)N1CCNCC1 [UM0141720:01, KW 2449]
28.15% | CCS(=O)(=O)c1cccc(-c2cc(C(=O)NC3CCN(C)CC3)c(C)c3[nH]c4ncc(C)cc4c23)c1 [UM0141721:01, TAK-901]
23.62% | Cc1nc(N)sc1-c1ccnc(Nc2ccc(N3CCOCC3)cc2)n1 [UM0141722:01, CYC116]
22.92% | CCN1CCN(C(=O)Cc2ccc(Nc3ncc(F)c(Nc4ccc(C(=O)Nc5ccccc5Cl)cc4)n3)cc2)CC1 [UM0141723:01, Aurora A Inhibitor I]
